Data as given in patent publication US20260062387A1, “SALT-INDUCIBLE KINASE INHIBITOR COMPOUND AND PHARMACEUTICAL COMPOSITION INCLUDING THE SAME” (MITSUBISHI TANABE PHARMA CORPORATION, priority 2023, published 2026).

Experiments:
Assay type in all cases: biochemical
GST-tagged SIK2 = GST-tagged SIK2 (Homo sapiens (Human), UniProt Q9H0K1); test: SIK2 inhibition test (ADP-Glo Max Assay); conditions: enzyme 3 nM, AMARA Peptide 200 μM, ATP 1 mM, 2 hours room temperature
How it was run: (§1)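 ADP formed was detected by luciferase luminescence after a 2 h room-temperature reaction with 1 mM ATP, 5 mM MgCl2 and AMARA peptide at 200 μM (SIK1, SIK2) or 100 μM (SIK3). Final GST-enzyme levels were 20 nM SIK1, 3 nM SIK2 and 100 nM SIK3. IC50 came from 16-point concentration-response data.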

GST-tagged SIK3 = GST-tagged SIK3 (Homo sapiens (Human), UniProt Q9Y2K2); test: SIK3 inhibition test (ADP-Glo Max Assay); conditions: enzyme 100 nM, AMARA Peptide 100 μM, ATP 1 mM, 2 hours room temperature
GST-tagged SIK3, sequence (Q9Y2K2 whole entry): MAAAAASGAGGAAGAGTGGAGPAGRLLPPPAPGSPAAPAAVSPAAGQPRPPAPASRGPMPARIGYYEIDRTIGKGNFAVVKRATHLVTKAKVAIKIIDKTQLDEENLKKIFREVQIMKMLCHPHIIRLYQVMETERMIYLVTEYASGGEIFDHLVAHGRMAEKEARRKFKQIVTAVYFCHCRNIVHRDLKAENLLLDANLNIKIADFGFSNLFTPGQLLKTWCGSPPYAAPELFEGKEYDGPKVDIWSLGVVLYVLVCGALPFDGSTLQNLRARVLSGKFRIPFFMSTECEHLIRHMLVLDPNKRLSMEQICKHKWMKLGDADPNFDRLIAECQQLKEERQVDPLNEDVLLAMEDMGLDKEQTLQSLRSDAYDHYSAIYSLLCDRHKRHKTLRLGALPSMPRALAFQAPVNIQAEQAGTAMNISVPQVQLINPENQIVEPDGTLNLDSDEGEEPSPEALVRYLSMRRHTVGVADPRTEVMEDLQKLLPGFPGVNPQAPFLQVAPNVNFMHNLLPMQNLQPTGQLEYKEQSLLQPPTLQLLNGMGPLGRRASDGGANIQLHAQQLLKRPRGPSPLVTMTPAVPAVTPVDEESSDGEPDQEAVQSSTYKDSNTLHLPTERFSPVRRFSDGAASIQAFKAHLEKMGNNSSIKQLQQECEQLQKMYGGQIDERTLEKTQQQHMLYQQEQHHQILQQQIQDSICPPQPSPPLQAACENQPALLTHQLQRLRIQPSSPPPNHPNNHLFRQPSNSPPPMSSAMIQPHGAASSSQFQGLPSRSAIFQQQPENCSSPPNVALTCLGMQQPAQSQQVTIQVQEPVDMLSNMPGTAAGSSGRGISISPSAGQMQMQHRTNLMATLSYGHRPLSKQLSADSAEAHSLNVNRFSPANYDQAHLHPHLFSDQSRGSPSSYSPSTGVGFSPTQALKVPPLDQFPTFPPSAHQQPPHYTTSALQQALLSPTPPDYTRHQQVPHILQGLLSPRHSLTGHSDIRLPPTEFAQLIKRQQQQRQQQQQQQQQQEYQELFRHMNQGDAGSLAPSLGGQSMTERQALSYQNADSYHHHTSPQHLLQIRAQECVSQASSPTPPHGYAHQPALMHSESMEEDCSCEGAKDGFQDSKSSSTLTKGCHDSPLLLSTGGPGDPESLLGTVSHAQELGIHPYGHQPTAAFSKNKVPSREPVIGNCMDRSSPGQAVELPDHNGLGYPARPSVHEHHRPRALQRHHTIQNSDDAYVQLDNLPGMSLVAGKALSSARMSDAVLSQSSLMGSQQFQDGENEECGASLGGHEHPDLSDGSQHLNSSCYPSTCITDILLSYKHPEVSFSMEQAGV
How it was run: as §1

GST-tagged SIK1 = GST-tagged SIK1 (Homo sapiens (Human), UniProt P57059); test: SIK1 inhibition test (ADP-Glo Max Assay); conditions: enzyme 20 nM, AMARA Peptide 200 μM, ATP 1 mM, 2 hours room temperature
GST-tagged SIK1, sequence (P57059 whole entry): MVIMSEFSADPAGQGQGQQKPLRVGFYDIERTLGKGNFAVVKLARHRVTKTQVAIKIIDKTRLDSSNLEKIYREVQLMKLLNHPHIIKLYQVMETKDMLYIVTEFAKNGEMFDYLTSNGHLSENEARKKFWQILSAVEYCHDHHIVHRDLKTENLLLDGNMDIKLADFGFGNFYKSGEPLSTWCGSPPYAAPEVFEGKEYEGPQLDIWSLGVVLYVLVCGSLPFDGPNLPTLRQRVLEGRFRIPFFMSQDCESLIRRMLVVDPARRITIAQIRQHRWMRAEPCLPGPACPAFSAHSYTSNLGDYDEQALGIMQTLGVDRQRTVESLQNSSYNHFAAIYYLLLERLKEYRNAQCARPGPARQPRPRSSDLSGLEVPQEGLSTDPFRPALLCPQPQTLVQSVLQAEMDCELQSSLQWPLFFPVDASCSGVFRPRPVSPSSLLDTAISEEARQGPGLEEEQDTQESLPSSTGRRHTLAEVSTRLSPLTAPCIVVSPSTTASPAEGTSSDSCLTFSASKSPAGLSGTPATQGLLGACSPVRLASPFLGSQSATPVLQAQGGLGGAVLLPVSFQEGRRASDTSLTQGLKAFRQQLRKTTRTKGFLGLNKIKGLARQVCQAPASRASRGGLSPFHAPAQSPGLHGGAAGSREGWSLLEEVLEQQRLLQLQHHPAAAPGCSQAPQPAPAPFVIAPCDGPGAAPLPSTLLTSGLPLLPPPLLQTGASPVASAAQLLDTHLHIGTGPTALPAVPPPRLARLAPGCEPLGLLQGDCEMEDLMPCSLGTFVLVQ
How it was run: as §1

GST-tagged SIK2, sequence (Q9H0K1 whole entry): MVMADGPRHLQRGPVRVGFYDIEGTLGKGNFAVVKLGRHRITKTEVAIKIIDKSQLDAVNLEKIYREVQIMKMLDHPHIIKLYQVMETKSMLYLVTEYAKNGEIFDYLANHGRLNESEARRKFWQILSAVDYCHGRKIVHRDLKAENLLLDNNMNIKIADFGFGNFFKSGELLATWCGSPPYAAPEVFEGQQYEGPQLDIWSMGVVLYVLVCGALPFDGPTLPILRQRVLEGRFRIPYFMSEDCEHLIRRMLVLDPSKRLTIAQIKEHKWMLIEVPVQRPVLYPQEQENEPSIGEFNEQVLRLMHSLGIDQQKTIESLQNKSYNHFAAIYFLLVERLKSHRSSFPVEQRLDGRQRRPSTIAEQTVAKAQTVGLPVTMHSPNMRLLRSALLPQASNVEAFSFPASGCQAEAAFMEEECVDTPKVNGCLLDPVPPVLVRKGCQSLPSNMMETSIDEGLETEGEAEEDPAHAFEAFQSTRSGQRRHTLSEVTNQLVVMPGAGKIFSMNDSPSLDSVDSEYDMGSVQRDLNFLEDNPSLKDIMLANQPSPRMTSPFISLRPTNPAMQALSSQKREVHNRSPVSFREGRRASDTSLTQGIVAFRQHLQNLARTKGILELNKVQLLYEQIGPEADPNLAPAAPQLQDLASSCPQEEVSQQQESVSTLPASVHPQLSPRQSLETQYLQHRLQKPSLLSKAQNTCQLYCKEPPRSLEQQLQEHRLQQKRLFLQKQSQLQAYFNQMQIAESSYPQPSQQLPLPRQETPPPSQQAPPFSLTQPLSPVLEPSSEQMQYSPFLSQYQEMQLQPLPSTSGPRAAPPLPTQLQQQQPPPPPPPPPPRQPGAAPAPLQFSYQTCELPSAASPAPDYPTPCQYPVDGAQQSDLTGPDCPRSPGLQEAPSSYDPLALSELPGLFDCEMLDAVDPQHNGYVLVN

| SMILES | IC50 (GST-tagged SIK2) | IC50 (GST-tagged SIK3) | IC50 (GST-tagged SIK1) |
| --- | --- | --- | --- |
| COc1cc(-c2c3c(C#N)cc(-c4cnn(C[C@H](C)O)c4)cc3nn2C)cc(OC(F)F)c1C(N)=O [Example 125, 4-[4-cyano-6-[1-[(2S)-2-hydroxypropyl]pyrazol-4-yl]-2-methylindazol-3-yl]-2-(difluoromethoxy)-6-methoxybenzamide] | 1.8 nM | 2.9 nM | 11.5 nM |
| COc1cc(-c2c3c(C(F)F)cc(-c4cnn(CC[C@@H](C)O)c4)cc3nn2C)cc(OC(F)F)c1C(=O)N[C@@H]1CC1(F)F [Example 120, N-[(1R)-2,2-difluorocyclopropyl]-2-(difluoromethoxy)-4-[4-(difluoromethyl)-6-[1-[(3R)-3-hydroxybutyl]pyrazol-4-yl]-2-methylindazol-3-yl]-6-methoxybenzamide] | 3.5 nM | 0.7 nM | 7.8 nM |
| Cn1cc(-c2cc(C#N)c3c(-c4ccc(C(=O)N[C@@H]5CC5(F)F)c(OC(F)F)c4)n(C)nc3c2)cn1 [Example 55, 4-[4-cyano-2-methyl-6-(1-methylpyrazol-4-yl)indazol-3-yl]-N-[(1R)-2,2-difluorocyclopropyl]-2-(difluoromethoxy)benzamide] | 3.5 nM | 2.4 nM | 10.4 nM |
| COc1cc(-c2c3c(C(F)F)cc(-c4cnn(CC(=O)N(C)C)c4)cc3nn2C)cc(OC(F)F)c1C(=O)N1CC(O)(C(F)(F)F)C1 [Example 60, 2-[4-[3-[3-(difluoromethoxy)-4-[3-hydroxy-3-(trifluoromethyl)azetidin-1-carbonyl]-5-methoxyphenyl]-4-(difluoromethyl)-2-methylindazol-6-yl]pyrazol-1-yl]-N,N-dimethylacetamide] | 4.8 nM | 4.9 nM | 6.9 nM |
| COc1cc(-c2c3c(C(F)F)cc(-c4cn[nH]c4)cc3nn2C)cc(OC(F)F)c1C(=O)N1CC(O)(C(F)(F)F)C1 [Example 68, [2-(difluoromethoxy)-4-[4-(difluoromethyl)-2-methyl-6-(1H-pyrazol-4-yl)indazol-3-yl]-6-methoxyphenyl]-[3-hydroxy-3-(trifluoromethyl)azetidin-1-yl]methanone] | 14.2 nM | 2.5 nM | 9.4 nM |
| COc1cc(-c2c3c(OC)cc(-c4cnn(C)c4)cc3nn2C)cc(OC(F)F)c1C(N)=O [Example 130, 2-(difluoromethoxy)-6-methoxy-4-[4-methoxy-2-methyl-6-(1-methylpyrazol-4-yl)indazol-3-yl]benzamide] | 2.1 nM | 16.8 nM | 16.9 nM |
| CCn1cc(-c2cc(C#N)c3c(-c4cc(OC)c5c(c4)C(C)(C)CNC5=O)n(C)nc3c2)cn1 [Example 139, 6-(1-ethylpyrazol-4-yl)-3-(8-methoxy-4,4-dimethyl-1-oxo-2,3-dihydroisoquinolin-6-yl)-2-methylindazole-4-carbonitrile] | 8.6 nM | 12.8 nM | 9 nM |
| COc1cc(-c2c3c(C#N)cc(-c4cnn(C)c4)cc3nn2C)cc(OC(F)F)c1C(=O)N1CC(O)(C(F)(F)F)C1 [Example 7, 3-[3-(difluoromethoxy)-4-[3-hydroxy-3-(trifluoromethyl)azetidin-1-carbonyl]-5-methoxyphenyl]-2-methyl-6-(1-methylpyrazol-4-yl)indazole-4-carbonitrile] | 16.2 nM | 12.4 nM | 17.1 nM |
| COc1cc(-c2c3ccc(N4CCN(C)CC4)cc3nn2C)cc2c1C(=O)N(CC(F)(F)F)CC2 [Comparative Example 8, 8-methoxy-6-(2-methyl-6-(4-methylpiperazin-1-yl)-2H-indazol-3-yl)-2-(2,2,2-trifluoroethyl)-3,4-dihydroisoquinolin-1(2H)-one, reference compound] | 683 nM | 887 nM | > 10000 nM |
| COc1cc(-c2c3c(C(F)F)cc(-c4cnn([C@@H]5CCOC5)c4)cc3nn2C)cc(OC(F)F)c1C(N)=O [Example 159, 2-(difluoromethoxy)-4-[4-(difluoromethyl)-2-methyl-6-[1-[(3R)-oxolan-3-yl]pyrazol-4-yl]indazol-3-yl]-6-methoxybenzamide] | 2.8 nM | 4.6 nM | 13.8 nM |
| COc1cc(-c2c3c(C#N)cc(-c4cnn(CC5CCS5(=O)=O)c4)cc3nn2C)cc(OC(F)F)c1C(=O)NCC1(F)CC1 (stereo not drawn) [Example 81, 4-[4-cyano-6-[1-[(1,1-dioxothietan-2-yl)methyl]pyrazol-4-yl]-2-methylindazol-3-yl]-2-(difluoromethoxy)-N-[(1-fluorocyclopropyl)methyl]-6-methoxybenzamide] | 7.3 nM | 10.6 nM | 13.3 nM |
| CCn1cc(-c2cc(OC)c3c(-c4cc(OC(F)F)c5c(c4)[C@@H](C)CNC5=O)n(C)nc3c2)cn1 (single isomer, unassigned) [Example 180] | 5.1 nM | 12.4 nM | 13.2 nM |
| COc1cc(-c2c3c(C#N)cc(-c4cnn(C[C@H](C)O)c4)cc3nn2C)cc(OC(F)F)c1C(=O)NC[C@@H]1CC1(F)F (single isomer, unassigned) [Example 95, 4-[4-cyano-6-[1-[(2S)-2-hydroxypropyl]pyrazol-4-yl]-2-methylindazol-3-yl]-N-[[(1R*)-2,2-difluorocyclopropyl]methyl]-2-(difluoromethoxy)-6-methoxybenzamide] | 13.3 nM | 5.7 nM | 16 nM |
| COc1cc(-c2c3c(OC)cc(-c4cnn(C)c4)cc3nn2C)cc(OC(F)F)c1C(=O)N1CC(O)(C(F)(F)F)C1 [Example 13, [2-(difluoromethoxy)-6-methoxy-4-[4-methoxy-2-methyl-6-(1-methylpyrazol-4-yl)indazol-3-yl]phenyl]-[3-hydroxy-3-(trifluoromethyl)azetidin-1-yl]methanone] | 7.2 nM | 3.8 nM | 4.6 nM |
| COCCn1cc(-c2cc(C#N)c3c(-c4cc(OC)c5c(c4)[C@@H](C)CNC5=O)n(C)nc3c2)cn1 (single isomer, unassigned) [Example 127] | 1.3 nM | 7.6 nM | 6.9 nM |
| COc1cc(-c2c3c(C#N)cc(-c4cnn(CC(F)F)c4)cc3nn2C)cc(OC(F)F)c1C(=O)N[C@@H]1CC1(F)F [Example 115, 4-[4-cyano-6-[1-(2,2-difluoroethyl)pyrazol-4-yl]-2-methylindazol-3-yl]-N-[(1R)-2,2-difluorocyclopropyl]-2-(difluoromethoxy)-6-methoxybenzamide] | 2.4 nM | < 0.6 nM | 9.4 nM |

The remaining lines, values ahead:

| IC50 (GST-tagged SIK2) | IC50 (GST-tagged SIK3) | IC50 (GST-tagged SIK1) | SMILES |
| --- | --- | --- | --- |
| 1.3 nM | 8.7 nM | 2.5 nM | COc1cc(-c2c3c(C#N)cc(-c4cnn(CCN(C)C)c4)cc3nn2C)cc(OC(F)F)c1C(=O)N[C@@H]1C[C@@H]1F [Example 19, 4-[4-cyano-6-[1-[2-(dimethylamino)ethyl]pyrazol-4-yl]-2-methylindazol-3-yl]-2-(difluoromethoxy)-N-[(1R,2S)-2-fluorocyclopropyl]-6-methoxybenzamide] |
| 102 nM | 42 nM | 5220 nM | COc1cc(-c2cnn3cc(OCCN4CCOCC4)ccc23)cc2c1C(=O)N(CC(F)(F)F)CC2 [Comparative Example 6, 8-methoxy-6-[6-(2-morpholinoethoxy)pyrazolo[1,5-a]pyridin-3-yl]-2-(2,2,2-trifluoroethyl)-3,4-dihydroisoquinolin-1-one, reference compound] |
| 12.3 nM | 10.3 nM | 7.8 nM | CCCn1cc(-c2cc(C#N)c3c(-c4cc(OC)c5c(c4)C(C)(C)CNC5=O)n(C)nc3c2)cn1 [Example 140, 3-(8-methoxy-4,4-dimethyl-1-oxo-2,3-dihydroisoquinolin-6-yl)-2-methyl-6-(1-propylpyrazol-4-yl)indazol-4-carbonitrile] |
| 7.3 nM | 5.7 nM | 15.5 nM | COc1cc(-c2c3c(C#N)cc(-c4cnn(CC(=O)N5CCCC5)c4)cc3nn2C)cc(OC(F)F)c1C(=O)NCC1(F)CC1 [Example 100] |
| 4.3 nM | 9.7 nM | 7.5 nM | COc1cc(-c2c3c(OC(F)F)cc(-c4cn(C)nn4)cc3nn2C)cc(OC(F)F)c1C(=O)N1CC(O)(C(F)F)C1 [Example 63, [2-(difluoromethoxy)-4-[4-(difluoromethoxy)-2-methyl-6-(1-methyltriazol-4-yl)indazol-3-yl]-6-methoxyphenyl]-[3-(difluoromethyl)-3-hydroxyazetidin-1-yl]methanone] |
| 9.3 nM | 1 nM | 12.5 nM | COc1cc(-c2c3c(C(F)F)cc(-c4cnn(CC5(O)CCC5)c4)cc3nn2C)cc(OC(F)F)c1C(=O)N[C@@H]1CC1(F)F [Example 117, N-[(1R)-2,2-difluorocyclopropyl]-2-(difluoromethoxy)-4-[4-(difluoromethyl)-6-[1-[(1-hydroxycyclobutyl)methyl]pyrazol-4-yl]-2-methylindazol-3-yl]-6-methoxybenzamide] |
| 8.1 nM | 10.2 nM | 10.5 nM | COc1cc(-c2c3c(C#N)cc(-c4cnn(CC5(O)CC5)c4)cc3nn2C)cc(OC(F)F)c1C(=O)NCC1(F)CC1 [Example 83, 4-[4-cyano-6-[1-[(1-hydroxycyclopropyl)methyl]pyrazol-4-yl]-2-methylindazol-3-yl]-2-(difluoromethoxy)-N-[(1-fluorocyclopropyl)methyl]-6-methoxybenzamide] |
| 12.3 nM | 2.4 nM | 9.8 nM | COc1cc(-c2c3c(C(F)F)cc(-c4cnn(C)c4)cc3nn2C)cc(OC(F)F)c1C(=O)N[C@@H]1CC1(F)F [Example 11, N-[(1R)-2,2-difluorocyclopropyl]-2-(difluoromethoxy)-4-[4-(difluoromethyl)-2-methyl-6-(1-methylpyrazol-4-yl)indazol-3-yl]-6-methoxybenzamide] |
